# Reference: paper PMC9718554, “Discovery of a fragment hit compound targeting D-Ala:D-Ala ligase of bacterial peptidoglycan biosynthesis” (Journal of Enzyme Inhibition and Medicinal Chemistry, 2022)
# Where two headings read alike, the source gives them in different places.
# Molecular target: T1, E. coli DdlB enzyme (D-alanine:D-alanine ligase) (Escherichia coli, UniProt P07862)
# T1 construct: made in house; host or cells: E. coli
# Assay: biochemical
# Conditions: for remaining activity at 2300 µM: tested concentration 2.3 mM; for remaining activity at 1800 µM: tested concentration 1.8 mM; for remaining activity at 1900 µM: tested concentration 1.9 mM; for remaining activity at 2000 µM: tested concentration 2.0 mM; for remaining activity at 1700 µM: tested concentration 1.7 mM; for remaining activity at 2100 µM: tested concentration 2.1 mM; for remaining activity at 2600 µM: tested concentration 2.6 mM; for remaining activity at 3100 µM: tested concentration 3.1 mM; for remaining activity at 2200 µM: tested concentration 2.2 mM; for remaining activity at 2900 µM: tested concentration 2.9 mM; for remaining activity at 3000 µM: tested concentration 3.0 mM
# [1] = residual activity, read-out: DdlB RA
# [2] = residual activity of DdlB, fragment library screening, tested concentration 2.5 mM, read-out: DdlB RA
# [3] = tested concentration 2.5 mM, read-out: DdlB RA
# [4] = residual activity of DdlB, fragment library screening, read-out: DdlB RA
# [5] = fragment library screening, read-out: DdlB RA
smiles,measurement,setting,value
COC(=O)c1nnn(-c2ccccc2)c1O [Compound 8017-3559],remaining activity at 2300 µM,read-out: DdlB RA,104%
CCCNC(=O)N1CCC(F)(C(=O)NC2CC2)CC1 [Compound T502-0828],remaining activity at 1800 µM,[1],97%
CC(=O)Nc1ccc(S(N)(=O)=O)cc1 [Compound 0405-0094],remaining activity at 2300 µM,read-out: DdlB RA,87%
COc1ccccc1Cc1noc([C@H]2CCCN2)n1 [FF20-0278],remaining activity at 1900 µM,read-out: DdlB RA,87%
O=C(O)c1cc2ccccc2oc1=O [FLD109],remaining activity at 2500 µM,[2],96%
Oc1cc(-c2ccco2)n[nH]1 [Compound Y503-3143],remaining activity at 3300 µM,"tested concentration 3.3 mM, read-out: DdlB RA",98%
O=C(Cc1c[nH]c2ncccc12)NCc1ccccc1 [Compound M508-0504],remaining activity at 1900 µM,[1],82%
CC(=O)Nc1ccccc1C(=O)O [FLD129],remaining activity at 2500 µM,[2],98%
O=c1c(NCc2ccccn2)c(-c2ccccc2)c1=O [Compound E470-0290],remaining activity at 1900 µM,read-out: DdlB RA,96%
N#Cc1ccccn1 [FLD180],remaining activity at 2500 µM,[2],98%
Cc1c[nH]c(=O)[nH]c1=O [FLD021],remaining activity at 2500 µM,[2],91%
Cc1cc(N)n(-c2ccc(S(=O)(=O)O)cc2)n1 [Compound 2991-0739],remaining activity at 2000 µM,read-out: DdlB RA,97%
Cc1nc(N2CCC(C(=O)O)CC2)cc(C(F)(F)F)n1 [Compound S553-0322],remaining activity at 1700 µM,read-out: DdlB RA,105%
N#Cc1cccc2[nH]ccc12 [Compound 8019-9980],remaining activity at 4200 µM,read-out: DdlB RA,101%
O=C(Nc1ccccc1C(=O)O)c1ccccc1 [Compound 0090-0118],remaining activity at 2100 µM,[1],101%
CC1CC(C)(C)Nc2c(C(=O)O)cccc21 (stereo not drawn) [Compound Y021-0767],remaining activity at 2300 µM,[1],97%
Cc1cccc(Nc2ncccc2S(N)(=O)=O)c1 [Compound M784-3114],remaining activity at 1900 µM,read-out: DdlB RA,94%
O=C(O)c1ccccc1-c1ncc[nH]1 [Compound 8019-7907],remaining activity at 2700 µM,"tested concentration 2.7 mM, read-out: DdlB RA",102%
Cc1ccc(F)cc1S(=O)(=O)N(C)CC1CCOC1 (stereo not drawn) [Compound S213-1645],remaining activity at 2100 µM,[1],102%
Fc1cc(Br)ccc1CN1CCCNCC1 [FLD158],remaining activity at 2500 µM,[2],63%
Nc1n[nH]c(-c2ccccc2C(=O)O)n1 [Compound 8020-6003],remaining activity at 2500 µM,[3],98%
Cc1nc(O)[nH]c(=O)c1S(=O)(=O)N1CCCCC1 [Compound D668-0306],remaining activity at 1800 µM,[1],89%
O=C(O)c1ccco1 [FLD096],remaining activity at 2500 µM,[2],95%
Nc1ncnc2[nH]ccc12 [FLD144],remaining activity at 2500 µM,[2],94%
NCCc1noc(C2CC2)n1 [Compound S399-0482],remaining activity at 2600 µM,[4],95%
NS(=O)(=O)c1ccccc1 [FLD110],remaining activity at 2500 µM,[2],110%
CSCCC(C(=O)O)N1C(=O)NC2NC(=O)NC21 (stereo not drawn) [Compound 8011-2492],remaining activity at 1800 µM,read-out: DdlB RA,95%
CCOC(=O)c1cccnc1C [FLD178],remaining activity at 2500 µM,[2],99%
OB1OCc2ccccc21 [Compound 8008-5589],remaining activity at 3700 µM,"tested concentration 3.7 mM, read-out: DdlB RA",85%
O=C(O)[C@H](O)Cc1ccccc1 [FLD039],remaining activity at 2500 µM,[2],93%
CC1Cc2ccc(CN)cc2N1C(=O)c1ccccc1 (stereo not drawn) [FF01-3167],remaining activity at 2300 µM,[1],51%
CCC[C@@H]1Cc2nc(O)c(C(=O)O)cc2CO1 [Compound 8330-0016],remaining activity at 2100 µM,read-out: DdlB RA,75%
Cc1nc(-c2ccncc2)sc1C(=O)O [FLD024],remaining activity at 2500 µM,[2],96%
CCNCc1ccncc1 [FLD193],remaining activity at 2500 µM,[2],91%
Nc1n[nH]c(CC(=O)O)n1 [Compound 8010-3882],remaining activity at 3500 µM,"tested concentration 3.5 mM, read-out: DdlB RA",100%
O=c1c(O)c(N2CCN(c3ccccc3)CC2)c1=O [Compound G317-0478],remaining activity at 1900 µM,read-out: DdlB RA,96%
N#Cc1nc[nH]c1C#N [FLD004],remaining activity at 2500 µM,read-out: DdlB RA,100%
"NC(=O)c1cnn2c(-c3ccccc3)ccnc12 [Compound 21, 7-Phenylpyrazolo[1,5-a]pyrimidine-3-carboxamide]",remaining activity at 500 µM,"at 0.5 mM, read-out: DdlB inhibition, RA (Residual Activity)",96%
O=[N+]([O-])c1cc(CN2CCCC2)c2cccnc2c1O [Compound 8010-2705],remaining activity at 1800 µM,[1],57%
Cc1nc(C#N)c(N2CCOCC2)o1 [Compound 8008-9715],remaining activity at 3100 µM,read-out: DdlB RA,93%
CN(Cc1ccccc1)c1c(-c2ccccc2)c(=O)c1=O [Compound E470-0301],remaining activity at 1800 µM,read-out: DdlB RA,103%
Cc1ccc(Cn2ccnc2C(N)=O)cc1 [Compound Z601-5404],remaining activity at 2600 µM,read-out: DdlB RA,99%
O=C(O)c1n[nH]cc1Br [Compound 8017-3539],remaining activity at 2600 µM,read-out: DdlB RA,87%
C#CC(=O)NC(C)c1ccc(C)cc1 (stereo not drawn) [Compound T001-1588],remaining activity at 3200 µM,"residual activity of DdlB, fragment library screening, tested concentration 3.2 mM, read-out: DdlB RA",93%
CCOC1CN=C2C(C#N)=CC=CN21 (stereo not drawn) [Compound Y600-6204],remaining activity at 2200 µM,read-out: DdlB RA,92%
Oc1cc(-c2ccccc2)n[nH]1 [Compound Y501-8801],remaining activity at 3100 µM,read-out: DdlB RA,102%
O=C(NCc1c[nH]c2ncccc12)C1CCC1 [Compound P610-0073],remaining activity at 2200 µM,[1],90%
Oc1nonc1N1CCOCC1 [Compound 8018-8552],remaining activity at 2900 µM,read-out: DdlB RA,92%
CCc1occc(=O)c1O [FLD104],remaining activity at 2500 µM,[2],86%
O=C(Nc1nnc[nH]1)C1CCC1 [Compound P774-4606],remaining activity at 3000 µM,[4],94%
O=C1C[C@H]2CN(S(=O)(=O)c3ccccc3)C[C@H]2CN1 [SB76-0562],remaining activity at 2100 µM,[1],86%
N#Cc1ccc(N2CCCNCC2)nc1 [FLD124],remaining activity at 2500 µM,[2],62%
OCCc1ccc(Cl)cc1 [FLD160],remaining activity at 2500 µM,[2],92%
O=C(O)CCNc1nc(F)cc(F)n1 [Compound 8012-6989],remaining activity at 2500 µM,[3],93%
Brc1ccc(-c2nc[nH]n2)cc1 [Compound 8020-5438],remaining activity at 2200 µM,[1],88%
O=C(COc1cccc(Br)c1)Nc1nnc[nH]1 [Compound 4491-0732],remaining activity at 1700 µM,read-out: DdlB RA,94%
CCOc1ccc([C@@H](CC(=O)O)NC(C)=O)cc1 [Compound 6705-0233],remaining activity at 2000 µM,[5],87%
Cn1nccc1-c1cccc(B(O)O)c1 [Compound 8020-6599],remaining activity at 2500 µM,[3],93%
CC1(C(=O)O)CCCCC(=O)N1 (stereo not drawn) [Compound S515-0278],remaining activity at 2900 µM,read-out: DdlB RA,93%
COc1ccc(-n2c(C)ccc2C)nc1 [Compound 8014-1211],remaining activity at 2500 µM,[3],22%
CCn1ncc(Cn2cc(Cl)c(N)n2)c1C [Compound Y504-8851],remaining activity at 2100 µM,read-out: DdlB RA,96%
Clc1ccc(Cl)nn1 [FLD095],remaining activity at 2500 µM,[2],98%
COC(=O)c1sc(C(=O)OC)c(O)c1O [Compound 8011-7913],remaining activity at 2200 µM,[1],86%
C[C@H](NC(=O)[C@H](C)n1nnc2ccccc2c1=O)C(=O)O [Compound Y040-2749],remaining activity at 1700 µM,[5],92%
N#Cc1ccc(CCO)cc1 [FLD149],remaining activity at 2500 µM,[2],100%
O=C(Nc1ccccc1)c1nc[nH]c1C(=O)O [Compound 8011-9089],remaining activity at 2200 µM,[1],104%
O=C(O)c1cccnc1NCc1ccc(F)cc1 [Compound 8020-1800],remaining activity at 2000 µM,[1],102%
NCc1nc2ccccc2[nH]1 [FLD157],remaining activity at 2500 µM,[2],105%
O=c1cc(N2CCOCC2)cn[nH]1 [FF20-1495],remaining activity at 3000 µM,[4],88%
O=c1c(-c2ccc(Cl)cc2)c(N2CCOCC2)c1=O [Compound E786-0171],remaining activity at 1800 µM,read-out: DdlB RA,141%
CC1CCOB(O)O1 (stereo not drawn) [Compound 0199-0113],remaining activity at 4300 µM,"tested concentration 4.3 mM, read-out: DdlB RA",89%
O=C(O)c1cccc(Cl)c1 [FLD071],remaining activity at 2500 µM,[2],100%
O=C(Cc1ccccc1)NCC1CCOCC1 [Compound P970-0162],remaining activity at 2600 µM,read-out: DdlB RA,92%
COCC1CN(C(C)=O)CC12CCNCC2 (stereo not drawn) [Compound S635-3083],remaining activity at 1900 µM,read-out: DdlB RA,93%
NC(=S)Nc1ccc(F)cc1 [FLD107],remaining activity at 2500 µM,[2],95%
